This is an account of results in PubChem BioAssay (NCI).

Values joined by “and” are separate entries in the source; they are usually repeats but may differ in a detail not shown here. Equal entries are not always repeated.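 Protocol summary: plate cells (96-well), add compound at 5 concentrations, incubate 48 h, interpolate endpoints linearly. GI50 is the concentration that inhibits growth by half. The concentration for full growth arrest is given as TGI.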

Test systems include 786-0 renal; ACHN renal; COLO 205 colon; EKVX NSCLC; HOP-62 NSCLC; LOX IMVI melanoma; SF-268 CNS; SF-295 CNS; SNB-19 CNS; SNB-75 CNS.
Common to all, as to assay: NCI-60 cell line screen, 48 h

As for `NC(=S)N/N=C1\C(=O)N(CCc2ccccc2)C(=O)C1C(=O)NCCc1ccccc1` (stereo not given), the TGI with 786-0 renal, in the test on ACHN renal, in the test with COLO 205 colon, with EKVX NSCLC, with HOP-62 NSCLC and in the test on LOX IMVI melanoma was above 100 µM in each case. Also, the TGI in the test on SF-268 CNS, in the test with SF-295 CNS, in the test on SNB-19 CNS and in the test with SNB-75 CNS was above 100 µM throughout.
Regarding `COC1=C(C)C(=O)C2=C(C1=O)C(CO)N1C(C#N)C3CC4C(C1C2N1CCOC41)N3C` (stereo not given), the GI50 in the test with 786-0 renal was 0.00243 µM; in the test with ACHN renal it was 0.00277 µM; with COLO 205 colon it was 0.000734 µM and 0.00604 µM and < 0.0134 µM; in the test on EKVX NSCLC it was 0.00438 µM and < 0.0144 µM; in the test with HOP-62 NSCLC, 0.00557 µM; in the test with LOX IMVI melanoma it was 0.00204 µM. The GI50 in the test on SF-295 CNS is 0.142 µM; in the test with SNB-75 CNS, 0.0669 µM. Besides, the TGI was 1.31 µM and 1.55 µM in the test with 786-0 renal; 3.54 µM and 10.6 µM with ACHN renal; 0.0203 µM and 0.0151 µM and 0.0205 µM in the test with COLO 205 colon; 0.973 µM and 0.902 µM and 3.34 µM in the test with HOP-62 NSCLC; 0.94 µM and 0.408 µM and 1.98 µM in the test on SF-268 CNS; 0.845 µM and 0.678 µM and 1.11 µM with SF-295 CNS. For the same compound, the TGI with SNB-19 CNS was 8.15 µM and 5.65 µM and 13.6 µM; with SNB-75 CNS, 0.141 µM and 0.226 µM and 0.338 µM.
For `O=[N+]([O-])c1cccc(/C=C/c2ccccn2)c1`, the GI50 in the test with 786-0 renal was 36.7 µM; with ACHN renal it was 5.81 µM; in the test with COLO 205 colon, 24.3 µM; with EKVX NSCLC it was 43.8 µM; in the test with HOP-62 NSCLC, 40.7 µM; with LOX IMVI melanoma, 10.6 µM. For the same compound, the GI50 is 24.7 µM with SF-268 CNS, 35.6 µM in the test on SF-295 CNS, 39 µM in the test on SNB-19 CNS and 5.47 µM with SNB-75 CNS. Besides, the TGI was above 100 µM in the test on 786-0 renal; above 100 µM in the test on ACHN renal; 95.5 µM in the test on COLO 205 colon; above 100 µM in the test with EKVX NSCLC; above 100 µM with HOP-62 NSCLC; above 100 µM with LOX IMVI melanoma. The TGI is above 100 µM in the test with SF-268 CNS, above 100 µM in the test on SF-295 CNS, above 100 µM with SNB-19 CNS and 75.4 µM in the test with SNB-75 CNS.
In the case of `CCc1nc(-n2c(CC)nc3ccccc3c2=O)nc(N)c1-c1ccc(Cl)cc1`, the GI50 was 8.13 µM in the test on 786-0 renal; above 27.1 µM in the test with ACHN renal; 19.3 µM with COLO 205 colon; 99 µM with EKVX NSCLC; 44.8 µM in the test with HOP-62 NSCLC; 6.91 µM in the test on LOX IMVI melanoma. The GI50 in the test with SF-268 CNS is above 40.4 µM; in the test with SF-295 CNS it was 12.6 µM; in the test with SNB-19 CNS it was above 81.1 µM; in the test on SNB-75 CNS, above 100 µM. Further, the TGI in the test on 786-0 renal was above 100 µM; in the test on ACHN renal it was above 100 µM; with COLO 205 colon, above 79.3 µM; in the test with EKVX NSCLC, above 100 µM; with HOP-62 NSCLC, above 100 µM; in the test on LOX IMVI melanoma it was above 100 µM. Also, the TGI with SF-268 CNS, with SF-295 CNS, with SNB-19 CNS and with SNB-75 CNS was above 100 µM throughout.
Turning to `CNS(=O)(=O)c1ccccc1C(=N)c1ccccc1`, the TGI with 786-0 renal, with ACHN renal, in the test on COLO 205 colon, in the test with EKVX NSCLC, with HOP-62 NSCLC and in the test with LOX IMVI melanoma was above 100 µM throughout. In addition, the TGI in the test on SF-268 CNS, with SF-295 CNS, in the test with SNB-19 CNS and with SNB-75 CNS was above 100 µM throughout.
For `c1ccc(CCCNc2nnnc3ccccc23)cc1`, the TGI in the test with 786-0 renal, with ACHN renal, in the test on COLO 205 colon, in the test with EKVX NSCLC, in the test with HOP-62 NSCLC and with LOX IMVI melanoma was above 100 µM throughout. Besides, the TGI in the test on SF-268 CNS, in the test on SF-295 CNS, with SNB-19 CNS and in the test with SNB-75 CNS was above 100 µM in each case.
In the case of `COc1ccc(-c2ccc3ncc4c(c3c2)n(-c2ccc(N3CCNCC3)c(C(F)(F)F)c2)c(=O)n4C)cn1`, the GI50 is < 0.01 µM and 0.00325 µM in the test with 786-0 renal; < 0.01 µM and 0.00959 µM in the test with ACHN renal; < 0.01 µM and 0.00994 µM in the test on COLO 205 colon; < 0.01 µM and 0.00426 µM with EKVX NSCLC; < 0.01 µM and 0.0119 µM in the test on HOP-62 NSCLC; < 0.01 µM and 0.00403 µM in the test with LOX IMVI melanoma. In addition, the GI50 was < 0.01 µM and 0.00867 µM with SF-268 CNS; < 0.01 µM and 0.00331 µM in the test on SF-295 CNS; < 0.01 µM and 0.00778 µM in the test on SNB-19 CNS; < 0.01 µM and 0.00263 µM with SNB-75 CNS. For the same compound, the TGI with 786-0 renal is 0.111 µM and 0.107 µM; in the test with ACHN renal it was 1.1 µM and 0.782 µM; in the test on EKVX NSCLC, 0.0379 µM and 0.258 µM; with HOP-62 NSCLC, 0.378 µM and 0.428 µM; with LOX IMVI melanoma, 0.359 µM and 0.0882 µM; in the test with SF-268 CNS, 0.755 µM and 1.22 µM. In addition, the TGI is 0.0284 µM and 0.032 µM in the test on SF-295 CNS; 1.2 µM and 0.254 µM in the test with SNB-19 CNS; 0.0129 µM and 0.0255 µM in the test with SNB-75 CNS.
Turning to `O=C1NC2(CCCC2)/C(=N\O)C12CCCC2`, the TGI with 786-0 renal, with ACHN renal, in the test on COLO 205 colon, in the test on EKVX NSCLC, in the test with HOP-62 NSCLC and in the test with LOX IMVI melanoma was above 100 µM in each case. Also, the TGI in the test with SF-268 CNS, in the test with SF-295 CNS, in the test with SNB-19 CNS and in the test with SNB-75 CNS was above 100 µM throughout.
On to `CCCCCCCCCCCCOC1C(CNCC2OC3OC(C)(C)OC3C2NC(=O)Nc2ccc(C(F)(F)F)cc2)OC2OC(C)(C)OC21` (stereo not given), for which the GI50 in the test with 786-0 renal was 7.62 µM; in the test with ACHN renal, 7.05 µM; in the test on COLO 205 colon, 3.26 µM; with EKVX NSCLC, 7.49 µM; with HOP-62 NSCLC it was 8.1 µM; in the test with LOX IMVI melanoma, 2.89 µM. Moreover, the GI50 in the test with SF-268 CNS is 7.93 µM; with SF-295 CNS, 9 µM; in the test with SNB-19 CNS, 9.07 µM; with SNB-75 CNS it was 6.04 µM. In addition, the TGI in the test with 786-0 renal is 14.4 µM; in the test with ACHN renal, 14 µM; with COLO 205 colon it was 7.32 µM; in the test on EKVX NSCLC, 14.5 µM; in the test on HOP-62 NSCLC, 15.1 µM; in the test with LOX IMVI melanoma, 5.65 µM. For the same compound, the TGI in the test on SF-268 CNS came out at 16.6 µM; in the test on SF-295 CNS, 17.9 µM; with SNB-19 CNS, 18 µM; with SNB-75 CNS, 13.4 µM.
